ChEMBL document CHEMBL1158659, “The alkaloids of Delphinium cashmirianum” (J Nat Prod, 1979)
Activity calls are given as the source filed them. No cut-off for these calls is given here.

What was measured:
[1] = system: Oryctolagus cuniculus; assay: Cardiovascular activity in Albino rabbit assessed as change in heart rate tested at basal heart rate of 170 beats/min at 0.10 mg/kg, iv by physiograph 4; assay type: functional; conditions: dose 0.1 mg/kg
[2] = system: Oryctolagus cuniculus; assay: Cardiovascular activity in Albino rabbit assessed as change in heart rate tested at basal heart rate of 170 beats/min at 0.25 mg/kg, iv by physiograph 4; assay type: functional
[3] = system: Oryctolagus cuniculus; assay: Cardiovascular activity in Albino rabbit assessed as change in heart rate tested at basal heart rate of 170 beats/min at 0.50 mg/kg, iv by physiograph 4; assay type: functional; conditions: dose 0.5 mg/kg
[4] = system: Oryctolagus cuniculus; assay: Cardiovascular activity in Albino rabbit assessed as change in heart rate tested at basal heart rate of 170 beats/min at 1.0 mg/kg, iv by physiograph 4; assay type: functional
[5] = system: Oryctolagus cuniculus; assay: Cardiovascular activity in Albino rabbit assessed as change in heart rate tested at basal heart rate of 180 beats/min at 1.0 mg/kg, iv by physiograph 4; assay type: functional
[6] = system: Oryctolagus cuniculus; assay: Cardiotoxicity in iv dosed Albino rabbit assessed as time to produce arrhythmias tested at basal heart rate of 170 beats/min; assay type: toxicity, organism-based; conditions: in vivo
[7] = system: Oryctolagus cuniculus; assay: Cardiotoxicity in iv dosed Albino rabbit assessed as drug level to produce arrhythmias tested at basal heart rate of 170 beats/min; assay type: toxicity, organism-based; conditions: in vivo
[8] = system: Oryctolagus cuniculus; assay: Cardiotoxicity in iv dosed Albino rabbit assessed as drug level to produce arrhythmias tested at basal heart rate of 180 beats/min; assay type: toxicity, organism-based; conditions: in vivo
[9] = system: Oryctolagus cuniculus; assay: Cardiotoxicity in iv dosed Albino rabbit assessed as time to produce arrhythmias tested at basal heart rate of 180 beats/min; assay type: toxicity, organism-based; conditions: in vivo
[10] = species: Cavia porcellus; assay: Cardiovascular activity in albino guinea pig atria assessed as increase in heart rate by physiograph 4; assay type: functional, tissue-based; conditions: Cardiac atrium
[11] = Arrhythmogenic activity in albino guinea pig atria at 100 uM; assay type: tissue-based, Cavia porcellus, Cardiac atrium
[12] = Arrhythmogenic activity in albino guinea pig atria after repeated atrial washing; assay type: tissue-based, Cavia porcellus, Cardiac atrium
[13] = system: Oryctolagus cuniculus; assay: Cardiovascular activity in Albino rabbit assessed as change in heart rate tested at basal heart rate of 190 beats/min at 0.10 mg/kg, iv by physiograph 4; assay type: functional; conditions: dose 0.1 mg/kg
[14] = system: Oryctolagus cuniculus; assay: Cardiovascular activity in Albino rabbit assessed as change in heart rate tested at basal heart rate of 190 beats/min at 0.25 mg/kg, iv by physiograph 4; assay type: functional
[15] = system: Oryctolagus cuniculus; assay: Cardiovascular activity in Albino rabbit assessed as change in heart rate tested at basal heart rate of 190 beats/min at 0.50 mg/kg, iv by physiograph 4; assay type: functional; conditions: dose 0.5 mg/kg
[16] = system: Oryctolagus cuniculus; assay: Cardiovascular activity in Albino rabbit assessed as change in heart rate tested at basal heart rate of 190 beats/min at 1.0 mg/kg, iv by physiograph 4; assay type: functional
[17] = system: Oryctolagus cuniculus; assay: Cardiotoxicity in iv dosed Albino rabbit assessed as drug level to produce arrhythmias tested at basal heart rate of 190 beats/min; assay type: toxicity, organism-based; conditions: in vivo
[18] = system: Oryctolagus cuniculus; assay: Cardiotoxicity in iv dosed Albino rabbit assessed as time to produce arrhythmias tested at basal heart rate of 190 beats/min; assay type: toxicity, organism-based; conditions: in vivo
[19] = Arrhythmogenic activity in albino guinea pig atria at 10 uM after repeated atrial washing; assay type: tissue-based, Cavia porcellus, Cardiac atrium
[20] = species: Cavia porcellus; assay: Cardiovascular activity in albino guinea pig atria assessed as increase in heart rate at 100 uM by physiograph 4; assay type: functional, tissue-based; conditions: Cardiac atrium
[21] = Arrhythmogenic activity in albino guinea pig atria at 30 uM; assay type: tissue-based, Cavia porcellus, Cardiac atrium
[22] = system: Oryctolagus cuniculus; assay: Cardiovascular activity in Albino rabbit assessed as sinusoidal heart rate tested at basal heart rate of 150 beats/min at 0.005 mg/kg, iv by physiograph 4; assay type: functional
[23] = system: Oryctolagus cuniculus; assay: Cardiovascular activity in Albino rabbit assessed as sinusoidal heart rate tested at basal heart rate of 150 beats/min at 0.010 mg/kg, iv by physiograph 4; assay type: functional; conditions: dose 0.01 mg/kg
[24] = system: Oryctolagus cuniculus; assay: Cardiotoxicity in iv dosed Albino rabbit assessed as drug level to produce arrhythmias tested at basal heart rate of 150 beats/min upto 30 mins; assay type: toxicity, organism-based; conditions: in vivo, 0.5 h
[25] = system: Oryctolagus cuniculus; assay: Cardiotoxicity in iv dosed Albino rabbit assessed as drug level to produce arrhythmias tested at basal heart rate of 150 beats/min; assay type: toxicity, organism-based; conditions: in vivo
[26] = system: Oryctolagus cuniculus; assay: Cardiotoxicity in iv dosed Albino rabbit assessed as time to produce arrhythmias tested at basal heart rate of 150 beats/min; assay type: toxicity, organism-based; conditions: in vivo
[27] = system: Oryctolagus cuniculus; assay: Cardiovascular activity in Albino rabbit assessed as change in heart rate tested at basal heart rate of 180 beats/min at 0.25 mg/kg, iv by physiograph 4; assay type: functional
[28] = system: Oryctolagus cuniculus; assay: Cardiovascular activity in Albino rabbit assessed as change in heart rate tested at basal heart rate of 180 beats/min at 0.50 mg/kg, iv by physiograph 4; assay type: functional; conditions: dose 0.5 mg/kg
[29] = system: Oryctolagus cuniculus; assay: Cardiovascular activity in Albino rabbit assessed as change in heart rate tested at basal heart rate of 180 beats/min at 5.0 mg/kg, iv by physiograph 4; assay type: functional
[30] = system: Oryctolagus cuniculus; assay: Cardiovascular activity in Albino rabbit assessed as sinusoidal heart rate tested at basal heart rate of 180 beats/min at 0.05 mg/kg, iv by physiograph 4; assay type: functional
[31] = system: Oryctolagus cuniculus; assay: Cardiovascular activity in Albino rabbit assessed as change in heart rate tested at basal heart rate of 180 beats/min at 0.10 mg/kg, iv by physiograph 4; assay type: functional; conditions: dose 0.1 mg/kg

CCN1C[C@]2(OC(=O)c3ccccc3N)CC[C@H](OC)[C@@]34[C@@H]2C[C@H]([C@@H]13)[C@@]1(O)C[C@H](OC)[C@H]2C[C@@H]4[C@]1(O)[C@H]2OC
Activity [1]: 8 bpm | Activity [2]: 5 bpm | Activity [3]: 0 bpm | Activity [4]: 0 bpm | Activity [5]: 0 bpm | Activity [6]: 52 s | Activity [7]: 1 mg/kg | Activity [8]: 1 mg/kg | Activity [9]: 85 s

CCN1C[C@]2(OC(=O)c3ccccc3NC(C)=O)CC[C@H](OC)[C@@]34[C@@H]2C[C@@H]([C@@H]13)[C@@]1(O)C[C@H](OC)[C@H]2C[C@@H]4[C@]1(O)[C@H]2OC
Activity [10]: inactive | Activity [11]: Toxic | Activity [12]: Non-toxic | Activity [13]: 0 bpm | Activity [14]: -5 bpm | Activity [15]: -30 bpm | Activity [16]: -35 bpm | Activity [17]: 1 mg/kg | Activity [18]: 45 s | Activity [19]: Toxic | Activity [20]: inactive

CCN1C[C@]2(COC)[C@H](O)C[C@H](OC)[C@@]34[C@@H]5C[C@@]6(O)[C@H](OC(=O)c7ccccc7)[C@@H]5[C@@](OC(C)=O)([C@@H]([C@H](OC)[C@H]23)[C@@H]14)[C@@H](O)[C@@H]6OC [ACONITINE]
Activity [10]: Dose-dependent effect | Activity [21]: Toxic | Activity [17]: 0.1 mg/kg | Activity [18]: 12 s | Activity [22]: 110 bpm | Activity [23]: 170 bpm | Activity [24]: 0.005 mg/kg | Activity [25]: 0.01 mg/kg | Activity [26]: 30 s

CCN1C[C@]2(COC(=O)c3ccccc3N)CC[C@H](OC)[C@]34C1[C@](O)([C@@H](OC)[C@H]23)[C@@]1(O)C[C@H](OC)[C@H]2C[C@@H]4[C@@H]1[C@H]2OC [ANTHRANOYLLYCOCTONINE]
Activity [2]: 8 bpm | Activity [3]: 5 bpm | Activity [4]: -5 bpm

CCN1C[C@]2(COC(=O)c3ccccc3NC(=O)CCC(N)=O)CC[C@H](OC)[C@@]34[C@@H]5C[C@H]6[C@H](OC)[C@@H]5[C@](O)(C[C@@H]6OC)[C@](O)([C@@H](OC)[C@H]23)[C@@H]14 [AVADHARIDINE]
Activity [27]: 5 bpm | Activity [28]: 0 bpm | Activity [5]: 0 bpm | Activity [29]: -10 bpm | Activity [30]: 0 bpm | Activity [31]: 8 bpm
